This assay concerns the target T1, H3 (Cavia porcellus, UniProt Q9JI35).
T1 construct: Whole jejunum segments (2 cm) were prepared and mounted between two platinum electrodes; from tissue; host or cells: guinea pig jejunum (small intestine, 20-50 cm proximal to the ileocaecal valve)
The experiment in a line: H3 antagonistic effects in vitro, electrically stimulated guinea pig jejunum, versus (R)-α-methylhistamine. Format: cell-based. Conditions: (R)-α-methylhistamine as H3-agonist, pyrilamine 1·10^-5 mol/L present, Schild regression, read-out: pA2 (H3-antagonistic activity) (converted). How it is done: Selected compounds were tested for H3 antagonistic effects in vitro, following standard methods, using the guinea pig ileum (R. C. Vollinga, O. P. Zuiderveld, H. Scheerens, A. Bast, H. Timmerman, Meth. Find. Exp. Cli. Pharmacol. 1992, 105, 747-751). Male guinea pigs weighing 300-400 g were sacrificed by a blow on the head. A portion of the small intestine, 20-50 cm proximal to the ileocaecal valve (jejunum), was removed and placed in Krebs buffer (composition (mM) NaCl 118; KCl 5.6; MgSO4 1.18; CaCl2 2.5; NaH2PO4 1.28; NaHCO3 25; glucose 5.5 and indomethacin (1 10^−6 mol/L)). […] Contractions were recorded isotonically under 1.0 g tension with Hugo Sachs Hebel-Messvorsatz (T1-2)/HF-modem (Hugo Sachs Electronik, Hugstetten, Germany) connected to a pen recorder. […] After 30 min of stimulation, five minutes before adding (R)-α-methylhistamine, pyrilamine (1.10^−5 mol/L concentration in organ bath) was added, and then cumulative concentration-response curves (half-log increments) of (R)-α-methylhistamine, H3-agonist, were recorded until no further change in response was found. Five minutes before adding the tested compounds, the pyrilamine (1 10^−5 mol/L concentration in organ bath) was added, and after 20 minutes cumulative concentration-response curves (half-log increments) of (R)-α-methylhistamine, H3-agonist, were recorded until no further change in response was found. […]

This note sets out measurements from patent US9573921B2, “Substituted N, N-dimethylaminoalkyl ethers of isoflavanone oximes as H1-receptor antagonists” (POLFARMEX S.A., priority 2013, dated 2017).

SMILES strings stand for the structures.

T1 sequence (Q9JI35 whole entry): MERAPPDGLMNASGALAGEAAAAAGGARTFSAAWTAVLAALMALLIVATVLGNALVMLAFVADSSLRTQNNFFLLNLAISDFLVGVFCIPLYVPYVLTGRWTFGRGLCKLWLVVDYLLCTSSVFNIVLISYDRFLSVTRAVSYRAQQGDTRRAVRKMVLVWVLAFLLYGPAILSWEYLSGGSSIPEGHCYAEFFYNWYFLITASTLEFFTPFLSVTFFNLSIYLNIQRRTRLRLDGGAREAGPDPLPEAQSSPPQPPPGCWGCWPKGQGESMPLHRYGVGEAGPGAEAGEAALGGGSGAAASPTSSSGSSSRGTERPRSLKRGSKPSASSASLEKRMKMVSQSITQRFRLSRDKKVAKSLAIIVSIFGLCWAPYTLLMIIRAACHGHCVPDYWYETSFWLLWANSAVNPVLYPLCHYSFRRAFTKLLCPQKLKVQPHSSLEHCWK

For the molecule `S=C(NC1CCCCC1)N1CCC(c2cnc[nH]2)CC1` [thioperamide], the Kb was 2.14 nM.
